Measurements taken from US5162336A, “Tetrahydro-pyrido-indoles as cholecystokinin and gastrin antagonists” (Rhone-Poulenc Rorer Pharmaceuticals Inc., priority 1990, dated 1992).

Target: T1, CCK-A receptor (Rattus norvegicus, UniProt P30551)
T1 construct: from tissue; host or cells: pancreas membranes of Sprague-Dawley rat
T1 sequence (P30551 1-444): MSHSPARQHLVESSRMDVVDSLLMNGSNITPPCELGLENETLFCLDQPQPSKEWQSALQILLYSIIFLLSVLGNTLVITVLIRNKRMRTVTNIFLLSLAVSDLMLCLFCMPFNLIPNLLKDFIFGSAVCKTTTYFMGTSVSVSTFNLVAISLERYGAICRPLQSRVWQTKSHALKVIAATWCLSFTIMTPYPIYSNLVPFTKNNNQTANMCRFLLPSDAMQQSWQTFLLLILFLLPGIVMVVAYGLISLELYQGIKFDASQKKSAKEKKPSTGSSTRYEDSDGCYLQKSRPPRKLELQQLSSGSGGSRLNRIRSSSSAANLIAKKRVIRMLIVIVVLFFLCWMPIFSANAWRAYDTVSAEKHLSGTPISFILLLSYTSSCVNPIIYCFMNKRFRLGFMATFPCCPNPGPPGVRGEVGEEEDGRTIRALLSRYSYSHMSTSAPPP
Test: CCK-A receptor binding assay (displacement of 3H-L-364,718 from rat pancreas membranes)
Set-up: species or system Sprague-Dawley rat
Conditions: 3H-L-364,718 0.2 nM, 37° C., 30 min, read-out: In vitro Binding Data IC50 CCK
Method in brief: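 Rat pancreas membranes incubated 30 min at 37 °C with 0.2 nM 3H-L-364,718 in 50 mM Tris pH 7.7, 5 mM MgCl2, 5 mM DTT, 0.14 mg/ml bacitracin, 2 mg/ml BSA. Nonspecific binding defined by 300 nM unlabeled L-364,718; rapid filtration and scintillation counting, triplicates.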

IC50: 10 to 25 µM
Structure (SMILES): CCOC(=O)c1cccc(NC(=O)[C@H]2Cc3c([nH]c4ccccc34)CN2C(=O)OCc2ccccc2)c1 [Example 16, ethyl 3-N-[(3R)-2-carbobenzoxy-1,2,3,4-tetrahydro-9H-pyrido[3,4-b]indole-3-carboxyl]aminobenzoate]
